Measured values reported in US6761911B2 (The United States of America as represented by the …, priority 1999, dated 2004).

Assays:
[1] = test system: E. coli; test: Intraruminal sodium chlorate in cattle: ruminal and fecal E. coli viable cell counts on MacConkey agar; type: in vivo; settings: for Mean ± SD (n = 2) fecal EC concentration / Mean ± SD (n = 2) ruminal EC concentration: treated (30 mM sodium chlorate intraruminally)
Procedure: Concentrations of E. coli in the ruminal contents and in feces collected from the test animals were determined by viable cell counts on MacConkey agar plates.

[2] = test system: culturable anaerobes; test: Most probable number of culturable anaerobes in ruminal fluid incubated with chlorate; type: cell-based; settings: 5 mM sodium chlorate, anaerobic, 39° C.

[O-][Cl+2]([O-])O [chlorate, sodium chlorate]
decrease in ruminal E. coli concentration ([1]; fasted and non-fasted, 30 mM sodium chlorate, after 24 hours (compared with 10 hours)): significantly greater | change of ruminal E. coli concentrations from prechlorate levels ([1]; fasted and non-fasted, 30 mM sodium chlorate, by 10 hours after chlorate administration): decreased only slightly | Mean ± SD (n = 2) fecal EC concentration ([1]; fasted, 0 h post treatment): 5.29 ± 0.24 log base 10 CFU/g | Mean ± SD (n = 2) ruminal EC concentration ([1]; fasted, 0 h post treatment): 3.62 ± 2.29 log base 10 CFU/g | Mean ± SD (n = 2) ruminal EC concentration ([1]; fasted, 10 h post treatment): 3.27 ± 3.21 log base 10 CFU/g | Mean ± SD (n = 2) fecal EC concentration ([1]; fasted, 24 h post treatment): 2.33 ± 1.24 log base 10 CFU/g | Mean ± SD (n = 2) ruminal EC concentration ([1]; fasted, 24 h post treatment): 2.40 ± 0.20 log base 10 CFU/g | Mean ± SD (n = 2) fecal EC concentration ([1]; nonfasted, 0 h post treatment): 5.19 ± 1.68 log base 10 CFU/g | Mean ± SD (n = 2) ruminal EC concentration ([1]; nonfasted, 0 h post treatment): 3.66 ± 1.76 log base 10 CFU/g | Mean ± SD (n = 2) ruminal EC concentration ([1]; nonfasted, 10 h post treatment): 2.22 ± 3.14 log base 10 CFU/g | Mean ± SD (n = 2) fecal EC concentration ([1]; nonfasted, 24 h post treatment): 2.65 ± 1.91 log base 10 CFU/g | Mean ± SD (n = 2) ruminal EC concentration ([1]; nonfasted, 24 h post treatment): 2.28 ± 1.38 log base 10 CFU/g | effect on the most probable number of culturable anaerobes [2]: little effect
